One block for each compound: values may come before it. Active and inactive are the calls of the source.
Key:
BJ [1] = test: cytotoxicity toward BJ-TERT fibroblasts, dose response, cell-based, RAS-independent, luminescence (AID 1933); assay type: functional; details: Homo sapiens
[2] = molecular target: SWI/SNF-related matrix-associated actin-dependent regulator of chromatin subfamily A member 2 (Homo sapiens, UniProt P51531); test: Luminescence-based cell-based high throughput dose response assay to identify activators of the function of SWI/SNF related, matrix associated, actin dependent regulator of chromatin, subfamily a, member 2 (SMARCA2, BRM).; assay type: functional
[3] = cytotoxicity toward DRD oncogenic fibroblasts, dose response, cell-based, non-viral oncogenic, luminescence (AID 1934); assay type: functional; details: Homo sapiens
INS1 = test: beta cell apoptosis inhibitors, cytokine rescue, dose response, luminescence, retest (AID 449756); assay type: functional, cell-based; details: Rattus norvegicus;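 also: cell death triggered by IL-1 beta plus TNF-alpha plus IFN-gamma mixture; protective hits raise ATP signal compared with cytokine alone wells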
[4] = molecular target: Aryl hydrocarbon receptor (Homo sapiens, UniProt P35869); test: Luminescence-based cell-based high throughput dose response assay for activators of the Aryl Hydrocarbon Receptor (AHR). [Related pubchem assays: 2796 (Primary screen (AHR activators in singlicate)), 2845 (Confirmation screen (AHR activators in triplicate)), 434939 (Counterscreen (PXR activators in triplicate)), 2804 (Summary (AHR activators))]; assay type: ADME
cells [5] = assay type: functional, cell-based
cells [6] = assay type: functional, cell-based; remark: listed apart in the source
BJ [7] = test: cells; assay type: functional, cell-based; details: Homo sapiens
[8] = Counterscreen for activators of the function of SWI/SNF related, matrix associated, actin dependent regulator of chromatin, subfamily a, member 2 (SMARCA2, BRM): Luminescence-based cell-based high throughput dose response assay to identify non-selective compounds using the VP16 reporter assay.; assay type: functional
BJ [9] = test: cytotoxicity toward BJ-TERT-LT-ST fibroblasts, dose response, cell-based, RAS-independent, luminescence (AID 1935); assay type: functional; details: Homo sapiens;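 also: BJ fibroblasts immortalized with TERT plus LT and ST oncogenes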
[10] = molecular target: DNA repair and recombination protein RAD54-like (Homo sapiens, UniProt Q92698); test: inhibitors of human RAD54 branch migration, confirmation, biochemical, fluorescence, cherry-picked samples, dose series (AID 651657); assay type: functional
[11] = CEM21 lymphoblast cell cytotoxicity, dose response, cytotoxicity control for viral fusion inhibitor project, CellTiter-Glo luminescence, cherry-picked (AID 652042); assay type: functional, cell-based;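 also: potency for signal decrease meaning cytotoxicity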
[12] = ZM109 Env clade C HIV-1 fusion inhibitors, dose response, HeLa effector, CEM target cells, luciferase, cherry-pick (AID 652058); assay type: functional, cell-based
[13] = off-target signal loss in HeLa-CEM21 co-culture – HeLa F-luc CTL cells, cherry-picked, counter-screen for HIV-1 Env fusion inhibitor project, dose response (AID 652040); assay type: functional, cell-based;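 also: potency for signal decrease marking cytotoxic or nonspecific inhibition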
[14] = molecular target: Mitochondrial peptide methionine sulfoxide reductase (Bos taurus, UniProt P54149); assay type: functional;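 also: absorbance read-out, biochemical high-throughput dose-response screen for MsrA inhibitors, confirmatory; recombinant bovine MsrA coupled to E. coli TrxB with NADPH and selenocystamine; potency is for inhibitors of MsrA activity on DMSO substrate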
[15] = inhibitors of HIV Env-driven cell fusion, dose response, cherry-pick (AID 652057); assay type: functional, cell-based
[16] = inhibitors of clade B AD8 Env fusion, dose response, cell-based, cherry-pick (AID 652062); assay type: functional;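 also: luciferase signal from cell-cell fusion driven by HIV-1 clade B AD8 Env; potency is for inhibitors of fusion seen as a drop in luminescence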
[17] = molecular target: Glucose-6-phosphate 1-dehydrogenase (Homo sapiens, UniProt P11413); test: human G6PD enzyme inhibitors, dose response, selectivity assay for P. falciparum G6PD inhibitor project, biochemical, fluorescence (AID 504792); assay type: functional
[18] = molecular target: Dual specificity protein phosphatase 3 (Homo sapiens, UniProt P51452); test: VHR phosphatase inhibition, dose response, selectivity assay for STEP inhibitor project, biochemical (AID 602374); assay type: functional; details: read-out: IC50_Mean
[19] = molecular target: Tyrosine-protein phosphatase non-receptor type 5 (Homo sapiens, UniProt P54829); test: STEP phosphatase inhibitors, confirmation, biochemical, fluorescence intensity, uHTS hits (AID 602372); assay type: functional; details: read-out: IC50_Mean
[20] = molecular target: Tyrosine-protein phosphatase non-receptor type 11 (Homo sapiens, UniProt Q06124); test: SHP2 phosphatase inhibition, dose response, selectivity assay for STEP inhibitor project, biochemical (AID 602367); assay type: functional; details: read-out: IC50_Mean

Mitochondrial peptide methionine sulfoxide reductase, sequence (P54149 whole entry, the tested form may be a part): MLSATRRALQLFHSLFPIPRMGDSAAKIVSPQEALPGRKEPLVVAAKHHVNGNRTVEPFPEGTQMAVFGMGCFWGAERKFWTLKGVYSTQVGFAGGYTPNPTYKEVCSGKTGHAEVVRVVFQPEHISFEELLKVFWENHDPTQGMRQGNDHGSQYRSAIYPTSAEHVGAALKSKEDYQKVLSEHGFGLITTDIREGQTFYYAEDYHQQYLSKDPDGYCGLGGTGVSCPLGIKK
Aryl hydrocarbon receptor, sequence (P35869 whole entry): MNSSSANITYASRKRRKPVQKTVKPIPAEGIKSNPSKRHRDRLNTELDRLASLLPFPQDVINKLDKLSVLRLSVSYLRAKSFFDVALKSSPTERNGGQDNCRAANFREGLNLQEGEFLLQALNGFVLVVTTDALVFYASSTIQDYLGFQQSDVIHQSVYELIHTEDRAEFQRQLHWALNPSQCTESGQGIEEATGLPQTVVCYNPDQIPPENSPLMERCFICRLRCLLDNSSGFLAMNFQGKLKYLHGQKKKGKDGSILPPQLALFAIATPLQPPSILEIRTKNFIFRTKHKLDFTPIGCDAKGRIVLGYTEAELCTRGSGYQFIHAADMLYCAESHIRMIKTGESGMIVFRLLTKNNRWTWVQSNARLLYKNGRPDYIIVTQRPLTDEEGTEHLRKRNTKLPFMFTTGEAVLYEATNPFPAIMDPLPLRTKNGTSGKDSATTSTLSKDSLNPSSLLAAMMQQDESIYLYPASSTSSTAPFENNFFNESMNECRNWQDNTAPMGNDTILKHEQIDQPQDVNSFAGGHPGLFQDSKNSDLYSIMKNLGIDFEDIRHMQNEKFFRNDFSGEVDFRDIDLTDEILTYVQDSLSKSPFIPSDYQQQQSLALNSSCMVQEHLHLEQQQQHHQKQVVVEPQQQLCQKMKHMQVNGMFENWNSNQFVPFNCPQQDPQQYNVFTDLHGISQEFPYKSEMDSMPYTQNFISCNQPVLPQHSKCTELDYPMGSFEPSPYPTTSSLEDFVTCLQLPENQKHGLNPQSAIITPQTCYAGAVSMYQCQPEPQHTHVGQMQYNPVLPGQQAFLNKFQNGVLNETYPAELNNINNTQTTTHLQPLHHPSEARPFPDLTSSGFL
DNA repair and recombination protein RAD54-like, sequence (Q92698 whole entry, the tested form may be a part): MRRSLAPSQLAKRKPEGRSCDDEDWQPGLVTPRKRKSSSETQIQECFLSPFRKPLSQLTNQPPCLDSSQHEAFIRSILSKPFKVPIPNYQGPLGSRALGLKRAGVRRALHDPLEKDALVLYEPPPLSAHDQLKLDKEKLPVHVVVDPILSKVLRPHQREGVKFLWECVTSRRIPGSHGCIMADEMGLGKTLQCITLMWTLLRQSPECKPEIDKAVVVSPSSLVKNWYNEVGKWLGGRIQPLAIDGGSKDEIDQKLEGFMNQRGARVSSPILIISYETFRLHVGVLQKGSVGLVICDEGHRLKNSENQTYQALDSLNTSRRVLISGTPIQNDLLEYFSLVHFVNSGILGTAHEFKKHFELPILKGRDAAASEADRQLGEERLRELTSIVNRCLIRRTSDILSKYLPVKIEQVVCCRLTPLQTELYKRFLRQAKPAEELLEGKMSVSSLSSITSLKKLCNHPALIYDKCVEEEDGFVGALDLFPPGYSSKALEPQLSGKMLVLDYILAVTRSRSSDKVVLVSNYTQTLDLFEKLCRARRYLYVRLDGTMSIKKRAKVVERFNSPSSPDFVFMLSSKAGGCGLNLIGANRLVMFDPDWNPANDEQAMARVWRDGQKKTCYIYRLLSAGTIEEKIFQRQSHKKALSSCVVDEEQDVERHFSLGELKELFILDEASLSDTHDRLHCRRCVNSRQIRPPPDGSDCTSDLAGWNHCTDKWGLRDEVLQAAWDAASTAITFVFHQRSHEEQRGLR
Glucose-6-phosphate 1-dehydrogenase, sequence (P11413 whole entry): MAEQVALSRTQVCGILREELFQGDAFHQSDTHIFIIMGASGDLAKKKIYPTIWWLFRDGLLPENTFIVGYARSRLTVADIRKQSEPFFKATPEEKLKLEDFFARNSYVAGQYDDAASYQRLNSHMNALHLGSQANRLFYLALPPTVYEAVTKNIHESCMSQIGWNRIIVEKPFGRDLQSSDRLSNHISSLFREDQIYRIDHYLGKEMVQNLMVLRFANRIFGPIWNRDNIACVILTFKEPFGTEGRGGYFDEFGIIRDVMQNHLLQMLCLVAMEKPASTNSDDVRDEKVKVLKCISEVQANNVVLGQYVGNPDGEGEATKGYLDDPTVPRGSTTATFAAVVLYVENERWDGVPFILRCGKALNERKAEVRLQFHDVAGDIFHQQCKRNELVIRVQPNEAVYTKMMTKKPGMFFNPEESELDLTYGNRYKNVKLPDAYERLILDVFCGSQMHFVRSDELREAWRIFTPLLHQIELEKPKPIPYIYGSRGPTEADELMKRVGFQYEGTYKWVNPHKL
Tyrosine-protein phosphatase non-receptor type 5, sequence (P54829 whole entry): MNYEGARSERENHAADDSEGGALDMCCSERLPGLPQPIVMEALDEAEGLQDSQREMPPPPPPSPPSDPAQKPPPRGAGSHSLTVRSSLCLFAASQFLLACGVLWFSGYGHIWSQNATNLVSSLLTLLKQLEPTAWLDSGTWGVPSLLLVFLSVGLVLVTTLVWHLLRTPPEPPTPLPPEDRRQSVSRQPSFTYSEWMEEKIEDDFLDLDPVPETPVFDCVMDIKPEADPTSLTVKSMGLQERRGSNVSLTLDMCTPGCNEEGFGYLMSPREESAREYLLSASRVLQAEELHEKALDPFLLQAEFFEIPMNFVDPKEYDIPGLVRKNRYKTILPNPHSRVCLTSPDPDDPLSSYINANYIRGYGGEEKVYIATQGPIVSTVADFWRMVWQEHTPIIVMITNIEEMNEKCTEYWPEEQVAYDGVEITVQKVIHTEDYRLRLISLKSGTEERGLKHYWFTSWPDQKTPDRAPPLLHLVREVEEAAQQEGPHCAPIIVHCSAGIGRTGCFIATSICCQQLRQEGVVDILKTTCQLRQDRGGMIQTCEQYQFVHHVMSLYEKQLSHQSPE
Dual specificity protein phosphatase 3, sequence (P51452 whole entry): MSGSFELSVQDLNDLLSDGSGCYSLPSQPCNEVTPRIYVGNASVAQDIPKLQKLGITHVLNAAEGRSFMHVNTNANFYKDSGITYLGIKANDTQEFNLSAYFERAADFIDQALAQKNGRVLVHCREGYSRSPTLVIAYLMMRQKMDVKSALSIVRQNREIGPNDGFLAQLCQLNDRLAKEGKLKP
SWI/SNF-related matrix-associated actin-dependent regulator of chromatin subfamily A member 2, sequence (P51531 whole entry): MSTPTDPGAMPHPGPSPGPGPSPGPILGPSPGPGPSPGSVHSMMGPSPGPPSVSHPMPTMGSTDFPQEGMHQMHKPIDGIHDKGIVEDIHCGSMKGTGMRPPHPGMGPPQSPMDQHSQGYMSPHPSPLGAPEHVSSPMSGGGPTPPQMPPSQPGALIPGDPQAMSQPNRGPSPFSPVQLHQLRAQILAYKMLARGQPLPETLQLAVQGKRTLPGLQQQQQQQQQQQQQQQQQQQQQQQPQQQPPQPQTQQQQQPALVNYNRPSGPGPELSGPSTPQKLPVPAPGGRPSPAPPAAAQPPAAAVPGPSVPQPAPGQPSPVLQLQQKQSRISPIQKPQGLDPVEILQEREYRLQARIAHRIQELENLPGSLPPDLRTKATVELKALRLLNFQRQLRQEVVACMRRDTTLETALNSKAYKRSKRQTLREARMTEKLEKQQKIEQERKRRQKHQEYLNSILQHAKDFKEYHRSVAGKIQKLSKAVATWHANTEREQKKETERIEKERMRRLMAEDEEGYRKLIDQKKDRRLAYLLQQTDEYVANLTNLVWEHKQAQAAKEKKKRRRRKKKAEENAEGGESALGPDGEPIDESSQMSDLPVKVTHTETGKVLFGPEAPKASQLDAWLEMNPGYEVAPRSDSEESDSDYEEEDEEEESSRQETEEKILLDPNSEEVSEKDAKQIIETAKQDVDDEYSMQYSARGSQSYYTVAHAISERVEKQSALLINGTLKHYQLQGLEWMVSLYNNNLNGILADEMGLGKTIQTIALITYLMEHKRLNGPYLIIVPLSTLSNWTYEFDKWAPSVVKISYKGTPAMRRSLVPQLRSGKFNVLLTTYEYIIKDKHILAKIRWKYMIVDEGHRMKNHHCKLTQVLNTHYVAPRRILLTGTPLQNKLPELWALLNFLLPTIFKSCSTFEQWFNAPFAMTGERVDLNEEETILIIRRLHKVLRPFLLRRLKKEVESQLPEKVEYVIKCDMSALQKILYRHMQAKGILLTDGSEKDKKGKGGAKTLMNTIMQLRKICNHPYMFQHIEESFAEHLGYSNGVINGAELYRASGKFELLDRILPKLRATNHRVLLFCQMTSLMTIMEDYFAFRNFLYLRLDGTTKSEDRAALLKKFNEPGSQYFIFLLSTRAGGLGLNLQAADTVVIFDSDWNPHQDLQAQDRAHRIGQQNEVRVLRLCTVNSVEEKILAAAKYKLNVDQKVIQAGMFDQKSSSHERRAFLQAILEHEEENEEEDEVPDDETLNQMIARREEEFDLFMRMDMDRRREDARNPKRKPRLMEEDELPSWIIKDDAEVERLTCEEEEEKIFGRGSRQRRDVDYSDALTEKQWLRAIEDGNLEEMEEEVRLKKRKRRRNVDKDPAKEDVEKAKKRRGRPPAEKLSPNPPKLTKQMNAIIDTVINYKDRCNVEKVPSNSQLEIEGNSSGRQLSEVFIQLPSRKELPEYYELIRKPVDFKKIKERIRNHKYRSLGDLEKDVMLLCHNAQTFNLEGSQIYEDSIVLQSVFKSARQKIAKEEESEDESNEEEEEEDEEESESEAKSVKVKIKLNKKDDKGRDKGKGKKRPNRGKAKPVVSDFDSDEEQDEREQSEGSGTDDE

SMILES: Nc1cc2c3c(cccc3c1)C(=O)N(CCN1CCCC1)C2=O
EC50 (BJ [1]): 13.2 µM (active)
EC50 [2]: > 10.1 µM (inactive)
EC50 [3]: 19.5 µM (active)
AC50 (INS1): 3.43 µM (active)
EC50 [4]: 0.286 µM (active)
EC50 (cells [5]): > 350 µM (not active)
EC50 (cells [6]): > 350 µM (not active)
EC50 (BJ [7]): 20.6 µM (active)
EC50 [8]: > 91.2 µM (inactive)
EC50 (BJ [9]): > 150 µM (inconclusive)
AC50 [10]: 5.82 µM (active)

SMILES: Cc1nc2c(o1)C(=O)c1ccccc1C2=Nc1ccccc1
AC50 [11]: 4.8 µM (active)
AC50 [12]: 3.45 µM (active)
AC50 [13]: 4.25 µM (active)
IC50 [14]: 155 µM (inactive)
AC50 [15]: 5.92 µM (active)
AC50 [16]: 2.74 µM (active)
IC50 [17]: > 80 µM (inactive)

IC50 [18]: 4.27 µM (active)
IC50 [19]: > 80 µM (inactive)
IC50 [20]: 4.66 µM (active)
SMILES: Sc1nnc(-c2cccnc2)n1/N=C/c1ccc(Br)s1
